Data taken from patent US20240360194A1, “New Peptides as Potent and Selective GIP Receptor Agonists” (Sanofi, priority 2021, published 2024).
In brackets after ≈: the same amount, converted by molar mass. Where two headings read alike, the source gives them in different places.

What was measured:
[1] = target: T1, human GLP-1 receptor (hGLP-1R) (Homo sapiens, UniProt P43220); test: Binding assay, displacement of [125I]GLP-1 from HEK-293 membranes over-expressing GLP-1R (SPA); conditions: [125I]GLP-1 displacement
Experimental: (1) Preparation of Membranes from HEK-293 Cells Over-Expressing GIPR or GLP-1R
HEK-293 cells recombinantly over-expressing GIPR or GLP-1R were grown to 50% confluency, washed with warm 1×PBS (Gibco) and detached in HEPES/EDTA-buffer (100 mM HEPES pH 7.5, 5 mM EDTA). Cells were harvested by centrifugation at 4° C. and 3000×g and the pellets were stored at −80° C. until further processing.
After thawing on ice, pellets were resuspended in HEPES/EDTA-buffer and homogenized on ice for 1 min using Ultra-Turray T25. After subsequent sonification the cell debris was removed by centrifugation at 1000×g and 4° C. Supernatants were then ultra-centrifuged at 100000×g and 4° C. under vacuum for 30 min. Pellets were resuspended in HEPES/EDTA/NaCl-buffer (20 mM HEPES, 1 mM EDTA, 150 mM NaCl; add 1 Complete Mini Protease inhibitor cocktail to 10 ml buffer) and protein content was determined via BCA-Protein assay.
(2) Measurement of Binding Activity of Test Compounds to Human GIPR or GLP-1R

[2] = target: T2, human GIP receptor (hGIPR) (Homo sapiens, UniProt P48546); test: In vitro cellular cAMP assay for GIP receptor efficacy (HEK-293 cell line over-expressing receptor); type: cell-based; conditions: EC50 hGIPR 0.1% BSA, HEK-293, 0.1% BSA
T2 sequence (P48546 22-466): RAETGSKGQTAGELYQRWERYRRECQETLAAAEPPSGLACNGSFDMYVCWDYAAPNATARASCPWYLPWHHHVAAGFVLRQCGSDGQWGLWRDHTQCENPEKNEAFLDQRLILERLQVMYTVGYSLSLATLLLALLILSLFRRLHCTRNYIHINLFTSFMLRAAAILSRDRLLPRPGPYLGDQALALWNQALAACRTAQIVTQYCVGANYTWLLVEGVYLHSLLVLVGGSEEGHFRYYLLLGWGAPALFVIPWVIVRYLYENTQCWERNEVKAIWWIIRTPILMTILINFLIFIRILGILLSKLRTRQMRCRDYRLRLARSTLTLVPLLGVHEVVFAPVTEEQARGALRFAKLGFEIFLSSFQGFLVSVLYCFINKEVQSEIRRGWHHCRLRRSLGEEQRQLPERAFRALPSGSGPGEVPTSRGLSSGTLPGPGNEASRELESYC

[3] = target: T1, human GLP-1 receptor (hGLP-1R); test: In vitro cellular cAMP assay for GLP-1 receptor efficacy (HEK-293 cell line over-expressing receptor); type: cell-based; conditions: HEK-293, 0.1% BSA
[4] = target: T2, human GIP receptor (hGIPR); test: Binding assay, displacement of [125I]GIP from HEK-293 membranes over-expressing GIPR (SPA); conditions: [125I]GIP displacement
Method in brief: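 Membranes from HEK-293 cells over-expressing human GIPR or GLP-1R, isolated by homogenising, sonicating and ultracentrifuging at 100000×g into HEPES/EDTA/NaCl buffer with protease inhibitors, were used for binding.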

human GIP receptor = target: T3, human GIP receptor (Homo sapiens, UniProt P48546); test: In vitro cellular cAMP assay for GIP receptor efficacy (human adipocytes); type: cell-based; conditions: for EC50: read-out: hGIPR EC50; for Emax: read-out: hGIPR Emax
T3 construct: human adipocytes endogenously expressing the human GIP receptor; host or cells: human preadipocytes (Lonza) differentiated to adipocytes
T3 sequence (P48546 22-466): T2 sequence (P48546 22-466)
Method in brief: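 cAMP is read by HTRF (665/620 nm ratio, 1 h after reagents in lysis buffer) following 30 min compound exposure at room temperature. Cells are human preadipocyte-derived adipocytes, differentiated 6 days with insulin, dexamethasone, IBMX (200 μM), PPARγ agonist and L-thyroxine, seeded 5000 per well.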

[5] = Solubility assessment (UHPLC-UV of supernatant, target 10 mg/ml); type: physicochemical
Method in brief: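 Peptides at 10 mg/ml (purity-corrected) in 100 mM phosphate pH 7.4, optionally with 2.7 mg/ml m-cresol; gentle agitation 1 h, then 5° C. overnight (24 h). Supernatant after 15 min centrifugation at 2500 RCF quantified by UHPLC-UV, with sequence-based extinction coefficients.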

[6] = 100 mM phosphate buffer pH 7.4 (solubility buffer system A), pH 7.4, Solubility buffer system A: 100 mM phosphate buffer pH 7.4, read-out: Soluble amount
[7] = pH 7.4, Solubility buffer system C: 100 mM phosphate buffer pH 7.4, 2.7 mg/ml m-cresol, read-out: Soluble amount

T1 sequence (P43220 24-463): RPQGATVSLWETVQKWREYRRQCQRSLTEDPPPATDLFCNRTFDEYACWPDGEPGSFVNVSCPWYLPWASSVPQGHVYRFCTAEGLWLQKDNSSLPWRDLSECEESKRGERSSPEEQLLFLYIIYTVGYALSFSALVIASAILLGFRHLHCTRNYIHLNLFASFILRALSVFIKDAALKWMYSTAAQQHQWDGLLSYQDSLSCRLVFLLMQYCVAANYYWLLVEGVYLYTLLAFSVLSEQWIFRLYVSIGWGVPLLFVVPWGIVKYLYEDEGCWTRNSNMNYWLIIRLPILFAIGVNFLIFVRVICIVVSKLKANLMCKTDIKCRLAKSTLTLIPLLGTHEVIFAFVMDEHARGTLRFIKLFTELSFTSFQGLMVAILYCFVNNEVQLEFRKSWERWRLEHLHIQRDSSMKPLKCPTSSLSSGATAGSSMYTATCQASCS

Row | IC50 [1] [nM] | EC50 [2] [nM] | EC50 [3] [nM] | IC50 [4] [nM] | EC50 (human GIP receptor) [nM] | Emax (human GIP receptor) [%] | solubility at 24 h [5, 6] [µg/mL] | solubility at 24 h [5, 7] [µg/mL] | solubility at 24 h ([5]; pH 7.4, Soluble amount) [µg/mL] | SMILES
1 | 139 | 0.00745 | > 10 | 0.1 | 0.7 | 128 | > 10700 | 1800 (≈ 423 µM) |  | CC[C@H](C)[C@H](NC(=O)[C@H](CCCNC(=N)N)NC(=O)[C@H](CC(=O)O)NC(=O)[C@H](CCCCNC(=O)CN(C)C(=O)CN(C)C(=O)CN(C)C(=O)CC[C@H](NC(=O)CCCCCCCCCCCCCCCCC(=O)O)C(=O)O)NC(=O)C(C)(C)NC(=O)[C@@H](NC(=O)[C@H](CO)NC(=O)[C@H](CC(C)C)NC(=O)[C@H](CC(=O)O)NC(=O)[C@H](CO)NC(=O)[C@@H](NC(=O)[C@H](Cc1ccccc1)NC(=O)[C@@H](NC(=O)CNC(=O)[C@H](CCC(=O)O)NC(=O)C(C)(C)NC(=O)[C@@H](N)Cc1ccc(O)cc1)[C@@H](C)O)[C@@H](C)CC)[C@@H](C)CC)C(=O)N[C@@H](Cc1c[nH]cn1)C(=O)N[C@@H](CCC(N)=O)C(=O)NC(C)(C)C(=O)N[C@@H](CCC(=O)O)C(=O)N[C@@H](Cc1ccccc1)C(=O)N[C@H](C(=O)N[C@@H](CCC(=O)O)C(=O)N[C@@H](Cc1c[nH]c2ccccc12)C(=O)N[C@@H](CC(C)C)C(=O)N[C@@H](CC(C)C)C(=O)N[C@@H](C)C(=O)N[C@@H](CCC(N)=O)C(=O)N[C@@H](CCCNC(=N)N)C(=O)NCC(N)=O)[C@@H](C)CC [SEQ ID NO: 8, H2N-Y-Aib-E-G-T-F-I-S-D-L-S-I-Aib-K[{N-MeGly}3-gGlu-C18OH]-D-R-I-H-Q-Aib-E-F-I-E-W-L-L-A-Q-R-G-NH2]
2 | 236 | 0.0518 | > 10 | 0.7 | 2.1 | 114 | 5200 (≈ 1180 µM) |  |  | CC[C@H](C)[C@H](NC(=O)[C@H](Cc1ccccc1)NC(=O)[C@H](CCC(=O)O)NC(=O)[C@H](CCC(=O)O)NC(=O)[C@H](CCC(N)=O)NC(=O)[C@H](Cc1c[nH]cn1)NC(=O)[C@@H](NC(=O)[C@H](CCCNC(=N)N)NC(=O)[C@H](CC(=O)O)NC(=O)[C@H](CCCCNC(=O)COCCOCCNC(=O)COCCOCCNC(=O)CC[C@H](NC(=O)CCCCCCCCCCCCCCCCCCC(=O)O)C(=O)O)NC(=O)C(C)(C)NC(=O)[C@@H](NC(=O)[C@H](CO)NC(=O)[C@H](CC(C)C)NC(=O)[C@H](CC(=O)O)NC(=O)[C@H](CO)NC(=O)[C@@H](NC(=O)[C@H](Cc1ccccc1)NC(=O)[C@@H](NC(=O)CNC(=O)[C@H](CCC(=O)O)NC(=O)C(C)(C)NC(=O)[C@@H](N)Cc1ccc(O)cc1)[C@@H](C)O)[C@@H](C)CC)[C@@H](C)CC)[C@@H](C)CC)C(=O)N[C@@H](CCC(=O)O)C(=O)N[C@@H](Cc1c[nH]c2ccccc12)C(=O)N[C@@H](CC(C)C)C(=O)N[C@@H](CC(C)C)C(=O)N[C@@H](C)C(=O)N[C@@H](CCC(N)=O)C(=O)N[C@@H](CCCNC(=N)N)C(=O)NCC(N)=O [SEQ ID NO: 5, H2N-Y-Aib-E-G-T-F-I-S-D-L-S-I-Aib-K[{AEEA}2-gGlu-C20OH]-D-R-I-H-Q-E-E-F-I-E-W-L-L-A-Q-R-G-NH2]
3 | 183 | 0.0222 | > 10 | 0.5 | 1.2 | 98 | 7300 (≈ 1620 µM) | 7200 (≈ 1600 µM) |  | CC[C@H](C)[C@H](NC(=O)[C@H](CCCNC(=N)N)NC(=O)[C@H](CC(=O)O)NC(=O)[C@H](CCCCNC(=O)COCCOCCNC(=O)COCCOCCNC(=O)CC[C@H](NC(=O)CC[C@H](NC(=O)CCCCCCCCCCCCCCCCCCC(=O)O)C(=O)O)C(=O)O)NC(=O)C(C)(C)NC(=O)[C@@H](NC(=O)[C@H](CO)NC(=O)[C@H](CC(C)C)NC(=O)[C@H](CC(=O)O)NC(=O)[C@H](CO)NC(=O)[C@@H](NC(=O)[C@H](Cc1ccccc1)NC(=O)[C@@H](NC(=O)CNC(=O)[C@H](CCC(=O)O)NC(=O)C(C)(C)NC(=O)[C@@H](N)Cc1ccc(O)cc1)[C@@H](C)O)[C@@H](C)CC)[C@@H](C)CC)C(=O)N[C@@H](Cc1c[nH]cn1)C(=O)N[C@@H](CCC(N)=O)C(=O)NC(C)(C)C(=O)N[C@@H](CCC(=O)O)C(=O)N[C@@H](Cc1ccccc1)C(=O)N[C@H](C(=O)N[C@@H](CCC(=O)O)C(=O)N[C@@H](Cc1c[nH]c2ccccc12)C(=O)N[C@@H](CC(C)C)C(=O)N[C@@H](CC(C)C)C(=O)N[C@@H](C)C(=O)N[C@@H](CCC(N)=O)C(=O)N[C@@H](CCCNC(=N)N)C(=O)NCC(N)=O)[C@@H](C)CC [SEQ ID NO: 10, H2N-Y-Aib-E-G-T-F-I-S-D-L-S-I-Aib-K[{AEEA}2-{gGlu}2-C20OH]-D-R-I-H-Q-Aib-E-F-I-E-W-L-L-A-Q-R-G-NH2]
4 | 73 | 0.0531 | > 10 | 0.2 | 0.4 | 92 |  |  | > 9200 | CC[C@H](C)[C@H](NC(=O)[C@H](Cc1ccccc1)NC(=O)[C@H](CCC(=O)O)NC(=O)C(C)(C)NC(=O)[C@H](CCC(N)=O)NC(=O)[C@H](CCCCNC(=O)COCCOCCNC(=O)COCCOCCNC(=O)CC[C@H](NC(=O)CCCCCCCCCCCCCCCCC(=O)O)C(=O)O)NC(=O)[C@H](CCC(N)=O)NC(=O)[C@H](CCC(=O)O)NC(=O)[C@H](CCC(=O)O)NC(=O)[C@H](CC(C)C)NC(=O)C(C)(C)NC(=O)[C@@H](NC(=O)[C@H](CO)NC(=O)[C@H](CC(C)C)NC(=O)[C@H](CC(=O)O)NC(=O)[C@H](CO)NC(=O)[C@@H](NC(=O)[C@H](Cc1ccccc1)NC(=O)[C@@H](NC(=O)CNC(=O)[C@H](CCC(=O)O)NC(=O)C(C)(C)NC(=O)[C@@H](N)Cc1ccc(O)cc1)[C@@H](C)O)[C@@H](C)CC)[C@@H](C)CC)C(=O)N[C@@H](CCC(=O)O)C(=O)N[C@@H](Cc1c[nH]c2ccccc12)C(=O)N[C@@H](CC(C)C)C(=O)N[C@@H](CC(C)C)C(=O)N[C@@H](C)C(=O)N[C@@H](CCC(N)=O)C(=O)NCC(=O)N1CCC[C@H]1C(=O)N[C@@H](CO)C(=O)N[C@@H](CO)C(=O)NCC(=O)N[C@@H](CCC(=O)O)C(=O)N1CCC[C@H]1C(=O)N1CCC[C@H]1C(=O)N1CCC[C@H]1C(=O)N[C@@H](CO)C(N)=O [SEQ ID NO: 38, H2N-Y-Aib-E-G-T-F-I-S-D-L-S-I-Aib-L-E-E-Q-K[{AEEA}2-gGlu-C18OH]-Q-Aib-E-F-I-E-W-L-L-A-Q-G-P-S-S-G-E-P-P-P-S-NH2]
